According to US9233086B2 (THE REGENTS OF THE UNIVERSITY OF MICHIGAN, priority 2010, dated 2016):
Read-outs that look alike come from different tables or passages of the source. *1 amine or outer side, *2 acyl side, *3 side chain or, on linkers, in order; H or OH if unused. Where a SMILES comes first, the peptide text is derived from it. [ ]: non-standard residue; d: D form. The star is where a group is joined. Isovaleryl = CC(C)CC(=O)*; Isobutyryl = CC(C)C(=O)*; Ac4c = NC1(C(=O)O)CCC1; Pentanoyl = CCCCC(=O)*; PhAc = O=C(Cc1ccccc1)*; Aib = CC(C)(N)C(=O)O; CO = O=C([*:1])[*:2]; NHBn = c1ccc(CN*)cc1; Butyryl = CCCC(=O)*; Bz = O=C(c1ccccc1)*; NHPh = c1ccc(N*)cc1; NHiPr = CC(C)N*; For = O=C*

Molecular target: WDR5 (Homo sapiens (Human), UniProt P61964)
Experiment: FP based competitive binding assay to WDR5
Details: for fold increase of binding affinity to WDR5 on acetylation of the free amino group: vs corresponding unacetylated H3 peptide
Experimental: Another aspect of the invention is development of a Fluorescent Polarization (FP) based competitive binding assay. […] Next, the millipolarization (mP) values were measured at different time points in order to determine equilibrium duration and stability.
Accordingly, the optimal protein concentrations for the competitive assay was investigated.
All the FP based experiments were performed in MICROFLUOR® 2 Black, “U” Bottom, 96-well Microtiter Plates (ThermoSci.) and FP was measured as mP units in a microplate reader (Tecan Ultra) with excitation at 485 nm and emission at 530 nm. The Kd of the tracers and the IC50 value of the inhibitors were calculated using GraphPad Prism 4 software.
The binding affinities of the synthetic peptides shown in the study were measured using this competitive binding assay. A pre-incubated complex solution of WDR5Δ23 and the tracer in 120 μl assay buffer were added to dilutions of the test compound in 5 μl DMSO, giving final concentrations of WDR5Δ23 and the tracer of 4 nM and 0.6 nM, respectively. […] The plates were incubated with shaking at room temperature. The mP values were measured after five hours of incubation and Ki values were calculated using the equation described previously(31).

[1] = 4 nM WDR5Δ23, 0.6 nM 10mer-Thr-FAM tracer, Ki calculated by equation of ref. 31, read-out: Ki ± SD
[2] = 4 nM WDR5Δ23, 0.6 nM 10mer-Thr-FAM tracer, read-out: IC50 ± SD
[3] = read-out: Binding Affinity to WDR5 (IC50 ± SD), Table 5 peptidomimetics

Compound | IC50 [3] [µM] | also measured
CC(=O)N[C@@H](C)C(=O)N[C@@H](CCCNC(=N)N)C(N)=O [Ac-2mer, Ac-AR-NH2] (Ac-Ala-Arg-NH2) | – | Ki [1]: 27 ± 1.4 µM; IC50 [2]: 125 ± 6 µM
CC(=O)N[C@@H](C)C(=O)N[C@@H](CCCNC(=N)N)C(=O)N[C@@H](C)C(N)=O [Ac-3mer, Ac-ARA-NH2] (Ac-Ala-Arg-Ala-NH2) | – | Ki [1]: 0.12 ± 0.01 µM; IC50 [2]: 0.54 ± 0.03 µM
CC(=O)N[C@@H](C)C(=O)N[C@@H](CCCNC(=N)N)C(=O)N[C@@H](C)C(=O)N[C@@H](CCC(=O)O)C(N)=O [Ac-4mer, Ac-ARAE-NH2] (Ac-ARAE-NH2) | – | Ki [1]: 0.08 ± 0.01 µM; IC50 [2]: 0.4 ± 0.05 µM
CC(=O)N[C@@H](C)C(=O)N[C@@H](CCCNC(=N)N)C(=O)N[C@@H](C)C(=O)N[C@@H](CCC(=O)O)C(=O)N[C@H](C(=O)N[C@@H](Cc1c[nH]cn1)C(=O)N[C@@H](CC(C)C)C(=O)N[C@@H](CCCNC(=N)N)C(=O)N[C@@H](CCCCN)C(=O)N[C@@H](CO)C(N)=O)C(C)C [Ac-10mer] | – | IC50 [2]: 0.02 ± 0.004 µM; times more potent than the WIN peptide (Ki ratio vs WIN): 50; Ki (read-out: Ki): 0.003 µM
CC(=O)N[C@@H](C)C(=O)N[C@@H](CCCNC(=N)N)C(=O)N[C@H](C(N)=O)[C@@H](C)O [Ac-H3-3mer, Ac-ART-NH2] (Ac-Ala-Arg-Thr-NH2) | – | IC50 [2]: 0.08 ± 0.003 µM; Ki (read-out: Ki): 0.02 µM; fold increase of binding affinity to WDR5 on acetylation of the free amino group: 1500
CC(=O)N[C@@H](C)C(=O)N[C@@H](CCCNC(=N)N)C(=O)N[C@H](C(=O)N[C@@H](CCCCN)C(=O)N[C@@H](CCC(N)=O)C(=O)N[C@H](C(=O)N[C@@H](C)C(=O)N[C@@H](CCCNC(=N)N)C(=O)N[C@@H](CCCCN)C(=O)N[C@@H](CO)C(N)=O)[C@@H](C)O)[C@@H](C)O [Ac-H3-10mer] | – | IC50 [2]: 0.006 ± 0.002 µM; fold increase of binding affinity to WDR5 on acetylation of the free amino group: greater than 10,000
C[C@H](NC(=O)[C@H](CCCNC(=N)N)NC(=O)[C@H](C)NC=O)C(N)=O [CHO-3mer, CHO-ARA-NH2] (For-Ala-Arg-Ala-NH2) | – | Ki [1]: 3.2 ± 0.3 µM; IC50 [2]: 14.9 ± 1.4 µM; times less potent than Ac-3mer (ratio vs Ac-3mer): 25
CCCC[C@H](NC(=O)[C@H](C)NC(C)=O)C(=O)N[C@@H](C)C(N)=O [Compound 2A] | > 1 | –
CC(=O)N[C@@H](C)C(=O)N[C@@H](CCCN)C(=O)N[C@@H](C)C(N)=O [Compound 2B] | > 1 | –
CC(=O)N[C@@H](C)C(=O)N[C@@H](CCCCN)C(=O)N[C@@H](C)C(N)=O [Compound 2C] (Ac-Ala-Lys-Ala-NH2) | > 1 | –
CC(=O)N[C@@H](C)C(=O)N[C@H](C(=O)N[C@@H](C)C(N)=O)C1CCN(C(=N)N)CC1 [Compound 2G] | > 10 | –
CC(=O)N[C@@H](C)C(=O)N[C@@H](CCCNC(=N)N)C(=O)N[C@H](C(N)=O)[C@@H](C)O [Compound 3I] (Ac-Ala-Arg-Thr-NH2) | < 1 | –
CC(=O)NC1(C(=O)N[C@@H](CCCNC(=N)N)C(=O)N[C@H](C(N)=O)C(C)C)CC1 [Compound 4A] | < 1 | –
CC(=O)NC1(C(=O)N[C@@H](CCCNC(=N)N)C(=O)N[C@H](C(N)=O)C(C)C)CCC1 [Compound 4B] | < 1 | –
CC(=O)NC1(C(=O)N[C@@H](CCCNC(=N)N)C(=O)N[C@H](C(N)=O)C(C)C)CCCC1 [Compound 4C] | < 1 | –
CC(=O)NC1(C(=O)N[C@@H](CCCNC(=N)N)C(=O)N[C@H](C(N)=O)C(C)C)CCCCC1 [Compound 4D] | < 1 | –
CC(=O)N[C@H](C(=O)N[C@@H](CCCNC(=N)N)C(=O)NC1(C(N)=O)CC1)C(C)C [Compound 5A] | < 10 | –
CC(=O)N[C@H](C(=O)N[C@@H](CCCNC(=N)N)C(=O)NC1(C(N)=O)CCC1)C(C)C [Compound 5B] | < 10 | –
CC(=O)N[C@H](C(=O)N[C@@H](CCCNC(=N)N)C(=O)NC1(C(N)=O)CCCC1)C(C)C [Compound 5C] | < 1 | –
CC(=O)N[C@H](C(=O)N[C@@H](CCCNC(=N)N)C(=O)NC1(C(N)=O)CCCCC1)C(C)C [Compound 5D] | < 10 | –
CC[C@H](NC(=O)[C@H](CCCNC(=N)N)NC(=O)C(C)(C)NC(C)=O)C(N)=O [Compound 6A] | < 1 | –
CC(=O)NC(C)(C)C(=O)N[C@@H](CCCNC(=N)N)C(=O)NC1(C(N)=O)CCCC1 [Compound 6B] | < 1 | –
CC(=O)NC(C)(C)C(=O)N[C@@H](CCCNC(=N)N)C(=O)N[C@H](C(N)=O)[C@@H](C)O [Compound 6C] (Ac-[Aib]-Arg-Thr-NH2) | < 1 | –
CC[C@H](NC(=O)[C@H](CCCNC(=N)N)NC(=O)C1(NC(C)=O)CCC1)C(N)=O [Compound 6D] | < 1 | –
CC(=O)NC1(C(=O)N[C@@H](CCCNC(=N)N)C(=O)NC2(C(N)=O)CCCC2)CCC1 [Compound 6E] | < 1 | –
CC(=O)NC1(C(=O)N[C@@H](CCCNC(=N)N)C(=O)N[C@H](C(N)=O)[C@@H](C)O)CCC1 [Compound 6F] (Ac-[Ac4c]-Arg-Thr-NH2) | < 1 | –
CCC(CC)(NC(C)=O)C(=O)N[C@@H](CCCNC(=N)N)C(=O)NC1(C(N)=O)CCCC1 [Compound 6G] | < 1 | –

Compound | IC50 [3] [µM] | also measured
CC(=O)N[C@@H](C)C(=O)N[C@@H](CCCNC(=N)N)C(=O)N[C@@H](C)C(=O)NC(C)C [Compound 7A] (Ac-Ala-Arg-Ala-NHiPr) | < 1 | –
CCC(CC)NC(=O)[C@H](C)NC(=O)[C@H](CCCNC(=N)N)NC(=O)[C@H](C)NC(C)=O [Compound 7B] | < 1 | –
CC(=O)N[C@@H](C)C(=O)N[C@@H](CCCNC(=N)N)C(=O)N[C@@H](C)C(=O)NC1CCCCC1 [Compound 7C] | < 1 | –
CC(=O)N[C@@H](C)C(=O)N[C@@H](CCCNC(=N)N)C(=O)N[C@@H](C)C(=O)Nc1ccccc1 [Compound 7D] (Ac-Ala-Arg-Ala-NHPh) | < 1 | –
CC(=O)N[C@@H](C)C(=O)N[C@@H](CCCNC(=N)N)C(=O)N[C@@H](C)C(=O)NCc1ccccc1 [Compound 7E] (Ac-Ala-Arg-Ala-NHBn) | < 1 | –
CC(=O)N[C@@H](C)C(=O)N[C@@H](CCCNC(=N)N)C(=O)N[C@@H](C)C(=O)NC(c1ccccc1)c1ccccc1 [Compound 7F] | < 1 | –
CC[C@H](NC(=O)[C@H](CCCNC(=N)N)NC(=O)C1(NC(C)=O)CCC1)C(=O)NCc1ccccc1 [Compound 8A] | < 1 | –
CC[C@H](NC(=O)[C@H](CCCNC(=N)N)NC(=O)C1(NC(C)=O)CCC1)C(=O)NC(c1ccccc1)c1ccccc1 [Compound 8B] | < 1 | –
CC(C)C(=O)N[C@@H](C)C(=O)N[C@@H](CCCNC(=N)N)C(=O)N[C@@H](C)C(N)=O [Compound 9A] (Isobutyryl-Ala-Arg-Ala-NH2) | < 1 | –
CC(C)CC(=O)N[C@@H](C)C(=O)N[C@@H](CCCNC(=N)N)C(=O)N[C@@H](C)C(N)=O [Compound 9B] (Isovaleryl-Ala-Arg-Ala-NH2) | > 10 | –
CCCC(=O)N[C@@H](C)C(=O)N[C@@H](CCCNC(=N)N)C(=O)N[C@@H](C)C(N)=O [Compound 9C] (Butyryl-Ala-Arg-Ala-NH2) | < 5 | –
CCCCC(=O)N[C@@H](C)C(=O)N[C@@H](CCCNC(=N)N)C(=O)N[C@@H](C)C(N)=O [Compound 9D] (Pentanoyl-Ala-Arg-Ala-NH2) | > 10 | –
C[C@H](NC(=O)[C@H](CCCNC(=N)N)NC(=O)[C@H](C)NC(=O)C1CC1)C(N)=O [Compound 9E] | < 5 | –
C[C@H](NC(=O)[C@H](CCCNC(=N)N)NC(=O)[C@H](C)NC(=O)C1CCC1)C(N)=O [Compound 9F] | < 10 | –
C[C@H](NC(=O)[C@H](CCCNC(=N)N)NC(=O)[C@H](C)NC(=O)CC1CCCC1)C(N)=O [Compound 9G] | > 1 | –
C[C@H](NC(=O)[C@H](CCCNC(=N)N)NC(=O)[C@H](C)NC(=O)c1ccccc1)C(N)=O [Compound 9H] (Bz-Ala-Arg-Ala-NH2) | > 1 | –
C[C@H](NC(=O)[C@H](CCCNC(=N)N)NC(=O)[C@H](C)NC(=O)Cc1ccccc1)C(N)=O [Compound 9I] (PhAc-Ala-Arg-Ala-NH2) | > 25 | –
C[C@H](NC(=O)[C@H](CCCNC(=N)N)NC(=O)[C@H](C)NC(=O)N(C)C)C(N)=O [Compound 9J] ({NMe2-CO}-Ala-Arg-Ala-NH2) | < 100 | –
CNC(=O)N[C@@H](C)C(=O)N[C@@H](CCCNC(=N)N)C(=O)N[C@@H](C)C(N)=O [Compound 9K] ({NHMe-CO}-Ala-Arg-Ala-NH2) | < 10 | –
CC(C)C(=O)NC1(C(=O)N[C@@H](CCCNC(=N)N)C(=O)NC2(C(=O)NC(c3ccccc3)c3ccccc3)CCCC2)CCC1 [Compound 10B] | < 1 | –
CCC(CC)(NC(=O)C(C)C)C(=O)N[C@@H](CCCNC(=N)N)C(=O)NC1(C(N)=O)CCCC1 [Compound 10C] | < 1 | –
CCC(CC)(NC(=O)C(C)C)C(=O)N[C@H](CCCNC(=N)N)C(=O)NC1(C(N)=O)CCCC1 [Compound 10D] | < 20 | –
CCC(CC)(NC(=O)c1ccccc1)C(=O)N[C@@H](CCCNC(=N)N)C(=O)NC1(C(N)=O)CCCC1 [Compound 10E] | > 1 | –
CCC(CC)(NC(=O)c1ccccc1)C(=O)N[C@H](CCCNC(=N)N)C(=O)NC1(C(N)=O)CCCC1 [Compound 10F] | > 5 | –
CCC(CC)(NC(=O)C(C)C)C(=O)N[C@@H](CCCNC(=N)N(C)C)C(=O)NC1(C(N)=O)CCCC1 [Compound 10G] | > 1 | –
CCC(CC)(NC(=O)c1ccccc1)C(=O)N[C@@H](CCCNC(=N)N)C(=O)NC1(C(=O)NC(c2ccccc2)c2ccccc2)CCCC1 [Compound 10I] | > 5 | –
